The values that follow come from PMC5591855, “d-Tubocurarine and Berbamine: Alkaloids That Are Permeant Blockers of the Hair Cell's Mechano-Electrical Transducer Channel and Protect from Aminoglycoside Toxicity” (Frontiers in Cellular Neuroscience, 2017).

The test system of this assay is T1, mechano-electrical transducer (MET) channel.
T1 construct: native channel in CD-1 mouse cochlear outer hair cells (organotypic cultures)
The experiment in a line: whole-cell patch clamp of MET currents, extracellular block at -104 mV, […] Ca2+. The assay is classed as cell-based, Mus musculus. To be noted: read-out: Kd. Background: Patch clamp records ionic current or voltage across a cell membrane.

For the compound `COc1cc2c3cc1Oc1cc(ccc1O)C[C@@H]1c4c(cc(OC)c(O)c4Oc4ccc(cc4)C[C@@H]3N(C)CC2)CC[N+]1(C)C` [dTC, d-Tubocurarine], the IC50 turned out to be 2200 nM. Regarding berbamine, the IC50 was found to be 2800 nM.
